Experiments:
Assay type in all cases: in vivo
DS male mice [1] = assay: Taming activity (inhibition of electroshock-induced fighting); settings: for Taming activity ED50: administered 60 minutes prior, inhibition of fighting responses, 5 pairs of mice; for times more potent than diazepam in taming activity: relative to diazepam (Compound No. 5)
Procedure: This test was measured on DS male mice. […] These pairs of mice were selected in the morning and used for drug test in the afternoon. The test compound was administered to both mice of the pairs 60 minutes prior to the experiment. Results were obtained as the mean percentage of inhibition of fighting responses in a group of 5 pairs and shown by ED50 [Tedeschi, et al.: J. Pharmacol Exp. Thev., 125, 28-34 (1959)].

DS male mice [2] = assay: Anti-pentylenetetrazole activity; settings: for Anti-pentylenetetrazol activity, ED50: given orally 60 minutes prior to pentylenetetrazol 125 mg/kg s.c., complete protection against mortality, observed two hours; for times more potent than diazepam in anti-pentylenetetrazol activity: relative to diazepam (Compound No. 5)
Excerpt: (1) Anti-pentylenetetrazole activity:
The convulsions were disregarded.

DS male mice [3] = assay: Rotarod performance activity; settings: fall from rod within less than 2 minutes; 10 mice per dose
Procedure: (3) Rotarod performance activity:
This test was measured on DS male mice. The mouse was put on a scraped rod of wood, 3 cm in diameter, turning at the rate of five rotations per minute. The mice that could remain on the rod for three or more minutes in successive trials were selected and placed in a group of 10 mice for each dose. If the mouse fell down from the rod within less than 2 minutes, the test compound was considered to be effective. Results were shown by ED50 [Dunham, et al.: J. Am. Pharm. Assoc., 46, 208 (1957)].

[4] = relative to chlordiazepoxide (Compound No. 4)

SMILES | times more potent than chlordiazepoxide in taming activity (DS male mice [1]; [4]) [times] | Anti-pentylenetetrazol activity, ED50 (DS male mice [2]) [mg/kg] | times more potent than chlordiazepoxide in anti-pentylenetetrazol activity (DS male mice [2]; [4]) [times] | Taming activity ED50 (DS male mice [1]) [mg/kg] | times more potent than diazepam in taming activity (DS male mice [1]) [times] | times more potent than diazepam in anti-pentylenetetrazol activity (DS male mice [2]) [times] | Rotarod performance ED50 (DS male mice [3]) [mg/kg]
CN(C(=O)CNC(=O)CN)c1ccc(Cl)cc1C(=O)c1ccccc1 [Compound No. 1, 2-benzoyl-4-chloro-N-methyl-N^α -glycyl-glycinanilide] | 2 to 3 | 1.0 | 2 to 3 | – | – | – | –
CN(C(=O)CNC(=O)CN)c1ccc(Cl)cc1C(=O)c1ccccc1Cl.O [Compound No. 2, 2-o-chlorobenzoyl-4-chloro-N-methyl-N^α -glycyl-glycinanilide hydrate] | – | 0.58 | – | 3.0 | 2 to 4 | 2 to 4 | –
CN(C(=O)CNC(=O)CN)c1ccc(Cl)cc1C(=O)c1ccccc1F.Cl [Compound No. 3, 2-o-fluorobenzoyl-4-chloro-N-methyl-N^α -glycyl-glycinanilide hydrochloride] | – | 0.33 | – | 1.6 | 2 to 4 | 2 to 4 | 17.0

— patent publication US4240957A, “Dipeptide derivatives and their production” (Shionogi & Co., Ltd., priority 1974, dated 1980)
